Values quoted from earlier work in US12318448B2, “Use of TLR agonist and anti-CD47 agent to enhance phagocytosis of cancer cells” (The Board of Trustees of the Leland Stanford Junior …, priority 2015, dated 2025).

Biological target: T1, TLR7 (Homo sapiens, UniProt Q9NYK1)
T1 sequence (Q9NYK1 27-1049): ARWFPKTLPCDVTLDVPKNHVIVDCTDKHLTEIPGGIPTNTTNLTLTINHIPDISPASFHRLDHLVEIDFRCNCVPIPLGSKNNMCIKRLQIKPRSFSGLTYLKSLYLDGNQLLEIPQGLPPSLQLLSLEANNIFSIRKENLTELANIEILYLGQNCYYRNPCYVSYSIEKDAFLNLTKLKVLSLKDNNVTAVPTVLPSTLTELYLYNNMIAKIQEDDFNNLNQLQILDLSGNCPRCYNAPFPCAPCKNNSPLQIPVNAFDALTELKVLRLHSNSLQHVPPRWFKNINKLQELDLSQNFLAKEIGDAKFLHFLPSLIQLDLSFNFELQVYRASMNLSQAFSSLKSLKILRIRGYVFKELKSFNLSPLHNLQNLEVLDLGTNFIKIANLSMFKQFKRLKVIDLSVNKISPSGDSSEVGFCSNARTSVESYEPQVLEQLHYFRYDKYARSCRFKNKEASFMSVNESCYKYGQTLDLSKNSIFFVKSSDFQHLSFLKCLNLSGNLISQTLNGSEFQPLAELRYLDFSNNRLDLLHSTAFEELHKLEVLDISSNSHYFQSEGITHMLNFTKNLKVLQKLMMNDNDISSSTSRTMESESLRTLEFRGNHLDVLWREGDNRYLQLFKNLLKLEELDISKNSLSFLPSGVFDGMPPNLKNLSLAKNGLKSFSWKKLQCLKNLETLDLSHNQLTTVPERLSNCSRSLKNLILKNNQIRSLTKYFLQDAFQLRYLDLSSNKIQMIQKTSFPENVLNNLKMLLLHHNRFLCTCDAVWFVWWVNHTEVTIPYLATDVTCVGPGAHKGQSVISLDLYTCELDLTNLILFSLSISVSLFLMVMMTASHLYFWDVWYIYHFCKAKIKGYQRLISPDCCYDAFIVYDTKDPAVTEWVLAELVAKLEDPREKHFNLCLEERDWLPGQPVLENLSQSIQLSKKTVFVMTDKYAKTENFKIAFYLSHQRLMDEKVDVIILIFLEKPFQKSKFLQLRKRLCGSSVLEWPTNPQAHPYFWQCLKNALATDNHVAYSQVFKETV
Details: administered parenterally as monotherapy; cited from earlier work

In the case of CCc1nc2c(N)nc3ccccc3c2n1CCCCNS(C)(=O)=O [852A], the clinical efficacy is listed as “modest clinical efficacy with disease stabilization”.
